Data set [1] can be described thus: PK study in dogs (intravenous and oral). Format: in vivo. How it is done:
Male beagle dogs purchased from Marshall Farm USA Inc. (NY, USA) were used for the PK study. Dogs were 16 months old when the PK study was conducted. The PK study was performed in a cross-over design with 8 days interval between the doses. Dogs were fasted a day before the PK study and feeding was resumed 4 h postdose. Dosing solution of lenvatinib used in the dog PK study was the same as that in the rodent PK studies. Lenvatinib was intravenously administered at the dose of 3 mg/kg via cephalic vein. Oral administration of lenvatinib was conducted at 3 mg/kg by using a tube with a disposable syringe, and then the dosing tube was given ca. 30 mL of water to flush the remaining dosing solution in the tube. The number of dogs at each dose was four. Approximately 0.5 mL of blood samples were serially obtained from the cephalic vein using a heparinized syringe at pre-dose, and at 5, 15 and 30 min, and 1, 2, 4, 6, 8, 12 and 24 h post-dose. Plasma sample preparation and sample storage were the same as those in the rodent PK studies. PK parameters of lenvatinib were estimated by model independent analysis using a WinNonlin program (Version 4.1, Pharsight Corporation, Mountain View, CA). The time to reach the maximum plasma concentration (Tmax) and the maximum plasma concentration (Cmax) values were obtained directly from the plasma concentration data. Terminal half-life (T1/2) was calculated by ln2/ke, where ke is the slope of the regression line that fits the portion of the terminal phase (at least three time points) in the log-linear concentration–time curve. AUC0–t and AUMC0–t, the area under the concentration–time curves and the area under the first moment curve, from time = zero to time = t, respectively, were calculated using the lenvatinib concentrations in plasma by the linear/log trapezoidal method. AUC0–inf was calculated by AUC0–t + Ct/ke, and AUMC0–inf was AUMC0–t + Ct × t/ke + Ct/(ke)^2, where Ct is the last measurable concentration at time = t. The plasma concentration at time zero for the intravenous dose was extrapolated, while zero was used for the oral doses. Mean residence time (MRT), total plasma clearance (CLtot) and the volume of distribution at steady state (Vdss) were calculated by AUMC0–inf/AUC0–inf, Dose/AUC0–inf and CLtot × MRT, respectively. Oral bioavailability (F) was estimated by comparing dose-normalized AUC0–inf after oral (AUC0–inf.po) and intravenous (AUC0–inf.iv) administration as follows: F (%) = (AUC0–inf.po/AUC0–inf.iv) × 100.

The next data set concerns plasma protein. Description: plasma unbound fraction, humans. As to conditions: human. The data set is classed as in vitro ADME.
Data set [2] in a line: Stability of lenvatinib in mice plasma and processed samples. The data set is classed as physicochemical. The note with it: for Frozen stability, mean percentage bias from the theoretical values: below − 15 °C, 4 weeks. On the procedure: (§1) Calibration samples and QC samples for the reproducibility assessment were prepared by spiking 0.05 mL of the working standard solutions to blank plasma (0.05 mL), and QC samples for the stability assessment were prepared by fortifying 0.05 mL of the solution to 1.5 mL of bank plasma. Lenvatinib concentrations in plasma were 0.005, 0.01, 0.03, 0.1, 0.3, 1, 3, 10, 30, and 100 μg/mL for the calibration samples, and were 0.005, 0.01, 1, and 100 μg/mL for the QC samples for reproducibility assessment. Lenvatinib concentrations of QC samples for the stability assessment were 0.01, 1, and 80 μg/mL.
The developed method for the determination of lenvatinib concentrations in plasma was validated and the following validation parameters including linearity, selectivity, intra- and inter-batch reproducibility, extraction recovery, and stability were evaluated in accordance with the bioanalytical guidelines by United States Food and Drug Administration (US-FDA)[7]. The peak height ratios of lenvatinib to the IS of calibration samples were plotted against the corresponding nominal concentrations of lenvatinib. The calibration curve was prepared by the least square method with 1/(concentration)^2 as the weighting factor. In the linearity assessment, accuracy of each calibration sample was determined to ensure that relative error (RE) at each concentration was within ± 15% (within ± 20% at the LLOQ). […] Intra-batch accuracy and precision were evaluated using QC samples at the four concentrations, LLOQ, low QC (LQC), mid QC (MQC), and ULOQ. […] Inter-batch accuracy and precision were evaluated by testing a single sample at each concentration across five batches (n = 5 in total). […] Extraction recoveries of lenvatinib and the IS from plasma samples of the four species were evaluated. The recoveries of lenvatinib at the low, mid, and high QC levels (triplicates per concentration), and that of the IS (0.5 μg/mL) were determined. […] Stability of lenvatinib in plasma and processed samples was assessed at the low and high QC levels. Lenvatinib concentrations in samples after storage were compared to the theoretical concentrations and RE values were calculated. […] Freeze–thaw stability in plasma was evaluated up to three freeze–thaw cycles and frozen stability in plasma was evaluated at − 15 °C or below for 4 weeks (mice, rats, and dogs) or 6 weeks (monkeys). Stability in processed samples was assessed at 4 °C for 7 days. Stability of lenvatinib in the standard solutions was evaluated for the stock (100 μg/mL) and the working solution (5 ng/mL). The stability of the IS solution (0.5 μg/mL) was also assessed. […]

Data set [3] can be described thus: Stability of lenvatinib in monkey plasma and processed samples. Format: physicochemical, monkeys. The note with it: monkey plasma; for Freeze/thaw stability, mean percentage bias from the theoretical values: 3 cycles; for Frozen stability, mean percentage bias from the theoretical values: below − 15 °C, 6 weeks. How it is done:
as §1
The developed method for the determination of lenvatinib concentrations in plasma was validated and the following validation parameters including linearity, selectivity, intra- and inter-batch reproducibility, extraction recovery, and stability were evaluated in accordance with the bioanalytical guidelines by United States Food and Drug Administration (US-FDA)[7]. The peak height ratios of lenvatinib to the IS of calibration samples were plotted against the corresponding nominal concentrations of lenvatinib. The calibration curve was prepared by the least square method with 1/(concentration)^2 as the weighting factor. In the linearity assessment, accuracy of each calibration sample was determined to ensure that relative error (RE) at each concentration was within ± 15% (within ± 20% at the LLOQ). In the selectivity assessment, peak heights at the retention times of lenvatinib and the IS should be within 20% and 5% of those of the LLOQ for lenvatinib and the IS, respectively in blank plasma from six individuals. Intra-batch accuracy and precision were evaluated using QC samples at the four concentrations, LLOQ, low QC (LQC), mid QC (MQC), and ULOQ. Six replicates per concentration were assayed to calculate RE and relative standard deviation (RSD). Inter-batch accuracy and precision were evaluated by testing a single sample at each concentration across five batches (n = 5 in total). The acceptance criteria for RE and RSD in the intra- and inter-batch reproducibility should be within ± 15% and 15%, respectively, except at the LLOQ that was within ± 20% and 20%, respectively, was allowed. Extraction recoveries of lenvatinib and the IS from plasma samples of the four species were evaluated. The recoveries of lenvatinib at the low, mid, and high QC levels (triplicates per concentration), and that of the IS (0.5 μg/mL) were determined. Peak heights of lenvatinib after extraction from plasma samples were compared to those of the neat solution with the same concentrations. Stability of lenvatinib in plasma and processed samples was assessed at the low and high QC levels. Lenvatinib concentrations in samples after storage were compared to the theoretical concentrations and RE values were calculated. The RE values should be within ± 15% when considered stable. Freeze–thaw stability in plasma was evaluated up to three freeze–thaw cycles and frozen stability in plasma was evaluated at − 15 °C or below for 4 weeks (mice, rats, and dogs) or 6 weeks (monkeys). Stability in processed samples was assessed at 4 °C for 7 days. Stability of lenvatinib in the standard solutions was evaluated for the stock (100 μg/mL) and the working solution (5 ng/mL). The stability of the IS solution (0.5 μg/mL) was also assessed. The standard solutions were stored at 5 °C for 4 weeks or 6 h at ambient temperature. The peak height of the stored solutions was compared to that of the freshly prepared solution. […]

[4] abbreviates: male, beagle, dog, plasma, intravenous 3 mg/kg.
[5] abbreviates: male, beagle, dog, plasma, oral 3 mg/kg.

As for `COc1cc2nccc(Oc3ccc(NC(=O)NC4CC4)c(Cl)c3)c2cc1C(N)=O` [lenvatinib, Lenvatinib], the “CLint (hepatic intrinsic clearance)” value in data set [1] (estimated from oral PK, Fa and Fg assumed unity, BW 10 kg) is recorded as 61,500 mL/h. The figures for the AUC(0-inf) in data set [1] (setting [4]) and in data set [1] (setting [5]) were 8420 ± 927 ng·h/mL and 5480 ± 1370 ng·h/mL, respectively. In addition, the mean residence time MRT (commonly a mean duration of stay, worked out from the concentration-time curve) in data set [1] (setting [4]) amounted to 4.34 ± 0.36 h; in data set [1] (setting [5]), 4.81 ± 0.25 h. In addition, the figures for the half-life in data set [1] (setting [4]) and in data set [1] (setting [5]) were 5.27 ± 0.83 h and 4.76 ± 0.94 h, respectively. Also, the C0 in data set [1] (male, beagle, dog, plasma, intravenous 3 mg/kg, extrapolated) is 2440 ± 303 ng/mL. Besides, the clearance in data set [1] (male, beagle, dog, plasma, intravenous 3 mg/kg, read-out: CLtot (converted)) was 6.13 mL/min/kg. Further, the Vd in data set [1] (male, beagle, dog, plasma, intravenous 3 mg/kg, read-out: Vdss) was 1.61 ± 0.249 L/kg. Besides, in data set [1] (setting [5]), the Cmax (as a rule, the highest concentration seen after dosing) was 1270 ± 302 ng/mL. The bioavailability (as a rule, dose-corrected exposure relative to a reference, in per cent) in data set [1] (male, beagle, dog, plasma, oral 3 mg/kg vs intravenous 3 mg/kg, read-out: F (oral bioavailability)) stood at 70.4 ± 23.1%. Besides, the Tmax (in general, the time at which the peak concentration occurs) in data set [1] (male, beagle, dog, plasma, oral 3 mg/kg, median (range)) worked out at 2 h. For the same compound, in the data set on plasma protein, the fraction unbound (as a rule, the share of the substance not bound to proteins or other matrix) was 0.0172. Further, the “Freeze/thaw stability, mean percentage bias from the theoretical values” in data set [2] (mice plasma, 3 cycles, HQC 80 μg/mL) is reported as 0.8%; in data set [3] (HQC 80 μg/mL), 1.6%; in data set [3] (MQC 1 μg/mL), 2.3%. The “Frozen stability, mean percentage bias from the theoretical values” in data set [2] (mice plasma, LQC 0.01 μg/mL) is on record as 0.0%; in data set [2] (mice plasma, MQC 1 μg/mL), 1.0%; in data set [3] (HQC 80 μg/mL), 7.0%; in data set [3] (LQC 0.01 μg/mL) it was 2.0%; in data set [3] (MQC 1 μg/mL) it was 4.2%. Also, in data set [2] (processed mice plasma samples, 4 °C, 7 days, HQC 80 μg/mL), the “Processed sample stability, mean percentage bias from the theoretical values” came out at 0.3%.

The record behind these values is article PMC10205807, “Cross-species comparison in nonclinical pharmacokinetics of lenvatinib by a simple HPLC with ultraviolet detection” (Scientific Reports, 2023).
